Paper doi:10.1101/2024.07.23.604814v1 (biorxiv, 2024)
pIC50: −log10 of the molar value.

The compounds below were run against T1, mouse sEH (Mus musculus, UniProt P34914) (assay: fluorogenic substrate hydrolase assay). Conditions: recombinant purified enzyme, average of triplicates.
T1 sequence (P34914 1-554): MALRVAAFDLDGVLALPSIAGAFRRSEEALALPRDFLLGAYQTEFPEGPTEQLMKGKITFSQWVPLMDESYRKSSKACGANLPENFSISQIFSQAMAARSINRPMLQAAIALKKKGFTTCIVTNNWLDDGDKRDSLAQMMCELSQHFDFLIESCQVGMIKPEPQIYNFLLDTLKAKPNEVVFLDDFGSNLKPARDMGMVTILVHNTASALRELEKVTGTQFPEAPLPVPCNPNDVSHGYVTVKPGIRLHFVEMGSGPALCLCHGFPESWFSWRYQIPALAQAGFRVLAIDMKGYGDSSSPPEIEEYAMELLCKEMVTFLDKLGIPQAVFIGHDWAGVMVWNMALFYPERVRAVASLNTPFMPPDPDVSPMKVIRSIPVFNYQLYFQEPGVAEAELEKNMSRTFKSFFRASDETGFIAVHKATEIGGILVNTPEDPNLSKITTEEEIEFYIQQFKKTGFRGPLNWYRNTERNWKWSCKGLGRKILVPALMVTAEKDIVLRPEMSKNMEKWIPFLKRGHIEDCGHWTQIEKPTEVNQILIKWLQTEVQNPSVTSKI
Type: biochemical
A pIC50 of 8.40 was found for `O=C(COc1cccc2c1C(=O)N(C1CCC(=O)NC1=O)C2=O)NCCOCCOCCOCCOCCNC(=O)c1ccc(O[C@H]2CC[C@H](NC(=O)Nc3ccc(OC(F)(F)F)cc3)CC2)cc1` (stereo partly drawn) [1a, compound 1a] in this work.
A pIC50 of 8.80 was found for `O=C1CCC(N2Cc3c(NCCOCCOCCOCCNC(=O)c4ccc(O[C@H]5CC[C@H](NC(=O)Nc6ccc(OC(F)(F)F)cc6)CC5)cc4)cccc3C2=O)C(=O)N1` (stereo partly drawn) [compound 1] in this work.
A pIC50 of 9.19 was found for `O=C1CCC(N2C(=O)c3ccc(NCCOCCOCCOCCOCCNC(=O)c4ccc(O[C@H]5CC[C@H](NC(=O)Nc6ccc(OC(F)(F)F)cc6)CC5)cc4)cc3C2=O)C(=O)N1` (stereo partly drawn) [compound 2] in this work.
A pIC50 of 8.33 was found for `O=C(COc1ccc(C2CCC(=O)NC2=O)cc1)NCCOCCOCCOCCOCCNC(=O)c1ccc(O[C@H]2CC[C@H](NC(=O)Nc3ccc(OC(F)(F)F)cc3)CC2)cc1` (stereo partly drawn) [compound 3] in this work.
A pIC50 of 8.22 was found for `O=C(COc1ccc(N2CCC(=O)NC2=O)cc1)NCCOCCOCCOCCOCCNC(=O)c1ccc(O[C@H]2CC[C@H](NC(=O)Nc3ccc(OC(F)(F)F)cc3)CC2)cc1` [compound 4] in this work.
A pIC50 of 8.03 was found for `Cc1ccc(C(=O)NCCOCCOCCOCCOCCNC(=O)c2ccc(O[C@H]3CC[C@H](NC(=O)Nc4ccc(OC(F)(F)F)cc4)CC3)cc2)cc1N1CCC(=O)NC1=O` [compound 5] in this work.
A pIC50 of 8.85 was found for `O=C1CCC(N2C(=O)c3cccc(NCCCCCC(=O)N4CCC(NC(=O)Nc5ccc(OC(F)(F)F)cc5)CC4)c3C2=O)C(=O)N1` (stereo not drawn) [compound 9] in this work.
A pIC50 of 8.52 was found for `O=C1CCC(N2C(=O)c3cccc(NCCOCCOCCC(=O)N4CCC(NC(=O)Nc5ccc(OC(F)(F)F)cc5)CC4)c3C2=O)C(=O)N1` (stereo not drawn) [compound 10] in this work.
A pIC50 of 8.51 was found for `Cc1ncsc1-c1ccc(CNC(=O)[C@@H]2C[C@@H](O)CN2C(=O)[C@@H](NC(=O)CCCCCCC(=O)N2CCC(NC(=O)Nc3ccc(OC(F)(F)F)cc3)CC2)C(C)(C)C)cc1` [compound 12] in this work.
